In brackets after ≈: the same amount, converted by molar mass.
Tests used:
[1] = tested on: Beauveria bassiana; assay: Effect on Beauveria bassiana Bb-N1 conidial germination at 2 mg/L measured at 27 +/-2 degC after 24 hr (reference value: 94.85 +/-2.13%); format: ADME, organism-based; conditions: in vivo
[2] = tested on: Aleurodicus dispersus; assay: Insecticidal activity against third-instar nymph stage of Aleurodicus dispersus in guava leaves assessed as mortality treated for 15 s measured at 27 +/-2 degC after 48 hr; format: functional
[3] = tested on: Aleurodicus dispersus; assay: Insecticidal activity against third-instar nymph stage of Aleurodicus dispersus in guava leaves assessed as mortality treated for 15 s measured at 27 +/-2 degC after 24 hr; format: functional
[4] = tested on: Aleurodicus dispersus; assay: Insecticidal activity against third-instar nymph stage of Aleurodicus dispersus in guava leaves assessed as mortality at 40 mg/l treated for 15 s measured at 27 +/-2 degC after 48 hr (reference value: 3%); format: functional
[5] = tested on: Aleurodicus dispersus; assay: Insecticidal activity against third-instar nymph stage of Aleurodicus dispersus in guava leaves assessed as mortality at 20 mg/l treated for 15 s measured at 27 +/-2 degC after 48 hr (reference value: 3%); format: functional
[6] = tested on: Aleurodicus dispersus; assay: Insecticidal activity against third-instar nymph stage of Aleurodicus dispersus in guava leaves assessed as mortality at 10 mg/l treated for 15 s measured at 27 +/-2 degC after 48 hr (reference value: 3%); format: functional
[7] = tested on: Aleurodicus dispersus; assay: Insecticidal activity against third-instar nymph stage of Aleurodicus dispersus in guava leaves assessed as mortality at 5 mg/l treated for 15 s measured at 27 +/-2 degC after 48 hr (reference value: 3%); format: functional
[8] = tested on: Aleurodicus dispersus; assay: Insecticidal activity against third-instar nymph stage of Aleurodicus dispersus in guava leaves assessed as mortality at 2.5 mg/l treated for 15 s measured at 27 +/-2 degC after 48 hr (reference value: 3%); format: functional
[9] = tested on: Aleurodicus dispersus; assay: Insecticidal activity against third-instar nymph stage of Aleurodicus dispersus in guava leaves assessed as mortality at 40 mg/l treated for 15 s measured at 27 +/-2 degC after 24 hr (reference value: 2%); format: functional
[10] = tested on: Aleurodicus dispersus; assay: Insecticidal activity against third-instar nymph stage of Aleurodicus dispersus in guava leaves assessed as mortality at 20 mg/l treated for 15 s measured at 27 +/-2 degC after 24 hr (reference value: 2%); format: functional
[11] = tested on: Aleurodicus dispersus; assay: Insecticidal activity against third-instar nymph stage of Aleurodicus dispersus in guava plant leaves assessed as mortality at 8 mg/l measured after 6 days in presence of 10^8 Beauveria bassiana conidial suspension under laboratory conditions (reference value: 32.8 +/-2.39%); format: functional; conditions: 144 h
[12] = tested on: Aleurodicus dispersus; assay: Insecticidal activity against third-instar nymph stage of Aleurodicus dispersus in guava plant leaves assessed as mortality at 4 mg/l measured after 6 days in presence of 10^8 Beauveria bassiana conidial suspension under laboratory conditions (reference value: 32.8 +/-2.39%); format: functional; conditions: 144 h
[13] = tested on: Aleurodicus dispersus; assay: Insecticidal activity against third-instar nymph stage of Aleurodicus dispersus in guava plant leaves assessed as mortality at 2 mg/l measured after 6 days in presence of 10^8 Beauveria bassiana conidial suspension under laboratory conditions (reference value: 32.8 +/-2.39%); format: functional; conditions: 144 h
[14] = tested on: Aleurodicus dispersus; assay: Insecticidal activity against third-instar nymph stage of Aleurodicus dispersus in guava plant leaves assessed as mortality at 8 mg/l measured after 3 days under laboratory conditions (reference value: 2%); format: functional; conditions: 72 h
[15] = tested on: Aleurodicus dispersus; assay: Insecticidal activity against third-instar nymph stage of Aleurodicus dispersus in guava plant leaves assessed as mortality at 4 mg/l measured after 3 days under laboratory conditions (reference value: 2%); format: functional; conditions: 72 h
[16] = tested on: Aleurodicus dispersus; assay: Insecticidal activity against third-instar nymph stage of Aleurodicus dispersus in guava plant leaves assessed as mortality at 2 mg/l measured after 3 days under laboratory conditions (reference value: 2%); format: functional; conditions: 72 h
[17] = tested on: Aleurodicus dispersus; assay: Insecticidal activity against third-instar nymph stage of Aleurodicus dispersus in guava plant leaves assessed as mortality at 8 mg/l measured after 3 days in presence of 10^8 Beauveria bassiana conidial suspension under laboratory conditions (reference value: 24.3 +/-1.03%); format: functional; conditions: 72 h
[18] = tested on: Aleurodicus dispersus; assay: Insecticidal activity against third-instar nymph stage of Aleurodicus dispersus in guava plant leaves assessed as mortality at 4 mg/l measured after 3 days in presence of 10^8 Beauveria bassiana conidial suspension under laboratory conditions (reference value: 24.3 +/-1.03%); format: functional; conditions: 72 h
[19] = tested on: Aleurodicus dispersus; assay: Insecticidal activity against third-instar nymph stage of Aleurodicus dispersus in guava plant leaves assessed as mortality at 2 mg/l measured after 3 days in presence of 10^8 Beauveria bassiana conidial suspension under laboratory conditions (reference value: 24.3 +/-1.03%); format: functional; conditions: 72 h
[20] = tested on: Beauveria bassiana; assay: Effect on Beauveria bassiana Bb-N1 conidial production at <8 mg/L measured at 27 +/-2 degC after 10 days; format: ADME, organism-based; conditions: in vivo, 240 h
[21] = tested on: Beauveria bassiana; assay: Inhibition of Beauveria bassiana Bb-N1 mycelial growth at 10 mg/L measured at 27 +/-2 degC after 10 days (reference value: 2.4 +/-0.19%); format: organism-based; set-up: scale not given: the % may be the effect or the level left; conditions: in vivo, 240 h
[22] = tested on: Beauveria bassiana; assay: Inhibition of Beauveria bassiana Bb-N1 mycelial growth at 8 mg/L measured at 27 +/-2 degC after 10 days (reference value: 2.4 +/-0.19%); format: organism-based; set-up: scale not given: the % may be the effect or the level left; conditions: in vivo, 240 h
[23] = tested on: Beauveria bassiana; assay: Inhibition of Beauveria bassiana Bb-N1 mycelial growth at 4 mg/L measured at 27 +/-2 degC after 10 days (reference value: 2.4 +/-0.19%); format: organism-based; set-up: scale not given: the % may be the effect or the level left; conditions: in vivo, 240 h
[24] = tested on: Beauveria bassiana; assay: Inhibition of Beauveria bassiana Bb-N1 mycelial growth at 2 mg/L measured at 27 +/-2 degC after 10 days (reference value: 2.4 +/-0.19%); format: organism-based; set-up: scale not given: the % may be the effect or the level left; conditions: in vivo, 240 h
[25] = tested on: Beauveria bassiana; assay: Effect on Beauveria bassiana Bb-N1 conidial germination at 10 mg/L measured at 27 +/-2 degC after 24 hr (reference value: 94.85 +/-2.13%); format: ADME, organism-based; conditions: in vivo
[26] = tested on: Beauveria bassiana; assay: Effect on Beauveria bassiana Bb-N1 conidial germination at 8 mg/L measured at 27 +/-2 degC after 24 hr (reference value: 94.85 +/-2.13%); format: ADME, organism-based; conditions: in vivo
[27] = tested on: Beauveria bassiana; assay: Effect on Beauveria bassiana Bb-N1 conidial germination at 4 mg/L measured at 27 +/-2 degC after 24 hr (reference value: 94.85 +/-2.13%); format: ADME, organism-based; conditions: in vivo

For CC1(C)[C@H](C=C(Cl)Cl)[C@H]1C(=O)O[C@@H](C#N)c1cccc(Oc2ccccc2)c1 [BETA-CYPERMETHRIN], the germination rate [1] was 93.78%, the LC95 [2] was 1768.57 µg/mL (≈ 4250 µM) and the LC50 ([2]; Aleurodicus dispersus, Nymph stage, 48 h) was 18.4 µg/mL (≈ 44.1 µM). The LC95 [3] was 1551.51 µg/mL (≈ 3730 µM), the LC50 ([3]; Aleurodicus dispersus, Nymph stage, 24 h) was 50 µg/mL (≈ 120 µM) and the mortality at 40 µg/mL [4] was 60.3%. For the same compound, the mortality at 20 µg/mL [5] was 52.8%, the mortality at 10 µg/mL [6] was 47.8% and the mortality at 5 µg/mL [7] was 32.3%. The mortality at 2.5 µg/mL [8] was 25.2%, the mortality at 40 µg/mL [9] was 46.6% and the mortality at 20 µg/mL [10] was 34.5%. For the same compound, the mortality at 8 µg/mL [11] was 80.6%, the mortality at 4 µg/mL [12] was 77.6% and the mortality at 2 µg/mL [13] was 75.3%. For the same compound, the mortality at 8 µg/mL [14] was 39.3%, the mortality at 4 µg/mL [15] was 34.1% and the mortality at 2 µg/mL [16] was 28.7%. The mortality at 8 µg/mL [17] was 76.1%, the mortality at 4 µg/mL [18] was 74.3% and the mortality at 2 µg/mL [19] was 67.7%. The Activity [20] was “Non-toxic”, the Activity [21] was 8.2% and the Activity [22] was 4.4%. The Activity [23] was 3.1%, the Activity [24] was 2.7% and the germination rate [25] was 89.18%. The germination rate [26] was 92.31% and the germination rate [27] was 93.15%.
